The values that follow come from patent publication US20250288607A1, “METHODS FOR TREATING SEXUAL DYSFUNCTION ASSOCIATED WITH POLYCYSTIC OVARY SYNDROME (PCOS) OR WITH HYPOACTIVE SEXUAL DESIRE DISORDER (HSDD)” (INSTITUT NATIONAL DE LA SANTÉ ET DE LA RECHERCHE MÉDICALE, priority 2022, published 2025).

No end group written: not given here.

Data set [1] has as its system control and PAMH female mice. Nature of the data set: Female sexual behavior test (lordosis, mild and severe rejection quotients) after pharmacological treatment. Format: in vivo. Here is the method:
(§1) Female sexual behavior test. Estrus female mice were tested for lordosis behavior over the dark phase following previously reported protocols (25, 40). During the annotation of sexual behavior, we also assessed sexual rejection behaviors over the same period of time.
All behavior tests were videotaped and manually annotated using Behavioral Observation Research Interactive Software (BORIS) (76).
(§2) Pharmacological treatments. SNAP: Female mice received a subcutaneous (s.c.) injection with 8 mg/kg S-nitroso-N-Acetyl-DL-Penicillamine (SNAP) (Sigma-Aldrich; catalog ##N3398) diluted in 100 μL of saline 15 minutes before behavioral testing and the chosen dose was based on previous reports (25). Kisspeptin: Female mice received a s.c. injection with 0.52 μg/kg kisspeptin-10 (Kiss-10; rodent metastin (45-54) amide; GeneCust; YY-10-NH2) diluted in 100 μL of saline 30 minutes before behavioral test based on previous reports (25). Sildenafil citrate: Female mice received an i.p. injection with 15 mg/kg sildenafil citrate (Sigma-Aldrich; catalog #171599-83-0) 1h before behavioral assessment based on previous trials from our laboratory (Chachlaki et al., unpublished data). Sildenafil citrate was firstly diluted in dimethyl sulfoxide (DMSO) to make up a stock solution of 25 mg/mL and further diluted with sterile saline to make up a working solution of 15 mg/mL for s.c. injection on the day of the injection.
Previous reports indicate that the control of female sexual behavior is highly dependent upon NOergic signaling in rodents (23-25). Having established the loss of nNOS expression in hypothalamic sites in PAMH mice, we next addressed whether the replenishment of NO levels could rescue normal sexual function in these females. Control and PAMH female mice were injected either with saline or S-nitroso-N-acetylpenicillamine (SNAP; 8 mg/kg), a well-known NO donor to boost circulating NO levels.
NO-mediated physiological responses are mostly dictated by intracellular levels of cyclic guanosine monophosphate (cGMP). Commonly used drugs for male sexual dysfunction, such as sildenafil citrate, commercialized as Viagra®, enhance NOergic signaling by decreasing the degradation of cGMP accumulating intracellular levels of the latest. To determine the severity of NO insufficiency in PAMH mice, we administered sildenafil citrate to both groups and evaluated lordosis behavior.

For the next data set, the system named is cFOS. Briefly: Percentage of cells expressing cFOS in hypothalamic and limbic areas following the lordosis test. The data set is classed as in vivo, mice. Here is the method:
Immunohistochemistry. Tissue preparation for immunohistochemistry is shown in SI Appendix. Free-floating immunohistochemistry was performed as described elsewhere (29, 73). Primary antibodies were used at the respective concentrations: polyclonal sheep anti-nNOS (1:2,000; generous gift from Dr. Piers C. Emson and validated elsewhere (74)), polyclonal rabbit anti-PR (1:500; Sigma; catalog #SAB4502184), rabbit anti-red fluorescent protein (RPF) (1:500; Rockland Immunochemicals, Inc.; catalog #600-401-379), and polyclonal chicken anti-GFP (1:1,000; Aves Labs Inc., catalog #GFP-1020). Brain sections were incubated with a cocktail of primary antibodies and 2% normal donkey serum (NDS) in incubation solution (0.25% bovine serum albumin with 0.3% Triton in TBS) over 48 hours at 4° C. Following washes with TBS, brain sections were incubated with secondary antibodies. Alexa Fluor 488 donkey anti-sheep (reference #A11015), Alexa Fluor 647 donkey anti-rabbit, (reference #A31573), Alexa Fluor 568 donkey anti-rabbit (reference #A10042) were all purchased from Thermo Fisher Scientific Inc. and used at 1:400 dilution in TBS solution. Alexa Fluor 488 donkey anti-chicken (Jackson ImmunoResearch Labs; reference #703-545-155) was used at 1:500 dilution in TBS solution. Sections were mounted onto glass slides and left to dry until covered with Fluoromount-G™ with DAPI (Invitrogen/Thermo Fisher Scientific Inc.; reference #00-4959-52), and coverslipped.
Image acquisition and analysis. Two representative brain sections from each region (RP3V, VMH, rARN, mARN, and cARN) were chosen from each animal for Immunohistological analysis. Brain sections were firstly examined using an Axio Imager, Z1 ApoTome microscope (Zeiss, Oberkochen, Germany), and an AxioCam MRm camera (Zeiss). Confocal imaging and analyses Zeiss Spinning-Disk microscope Yokogawa CSU-X1 model (Zeiss; BioImaging Center Lille (BICeL), of the University of Lille, France). High magnification images were acquired taking Z-stacks of 0.5 μm-steps using a 40x-oil objective (1.30 NA). Confocal images were further processed with ImageJ software for cell counting analysis. Final analysis considered the average counting from two representative sections of each region.
We aimed to determine how 8 mg/kg SNAP treatment may change the neuronal activation landscape in the female brain in estrus control and PAMH mice following the lordosis test. […]

Data set [2] concerns nNOS^VMH neurons. Briefly: Lordosis test after chemogenetic inhibition (hM4D(Gi) DREADD) of nNOS^VMH neurons with CNO. Format: in vivo, mice. How it is done:
as §1
(§3) Chemogenetic manipulations (viral transfection, stereotaxic injections, and behavioral assessment). The AAV9 double floxed Gi-coupled hM4D DREADD fused with fluorescent mCherry protein under the control of human synapsin promoter (AAV-hSyn-DIO-hM4D(Gi)-mCherry) (Addgene; catalog #44362-AAV9) was stereotaxically injected into the vlVMH of Nosl-ires-cre female mice under 4% isoflurane anesthesia with constant airflow. Lordosis test was carried out as described above with sexually experience female mice after three lordosis test trials. Females received i.p. injection with 100 μL of clozapine N-oxide dihydrochloride (CNO; Tocris; catalog #6329), at a dose of 3 mg/kg diluted in sterile saline, one hour before behavioral assessment. Each mouse received either CNO or saline (vehicle) in a random order, and the two behavioral assessments were performed ten days apart.
Among the three hypothalamic areas investigated in our study, the VMH (nNOS^VMH) is considered as the NOergic output responsible to control sexual performance in mammalian females (23), whereas nNOS^RP3V and nNOS^ARN are likely to contribute to the neuroendocrine control of GnRH/LH secretion (57, 58). […] To this end, we selectively targeted the expression of designer receptors exclusively activated by designer drugs (DREADD)-based tool hM4(Gi) into the VMH of Nos1cre/+ (Nos1-ires-cre; B6.129-Nos1tm1(cre)Mgmj/J) female mice (59). Viral transduction was established using a Cre-recombinase-dependent adeno-associated virus serotype 9 in which hM4 (Gi) is fused with mCherry reporter under the control of human synapsin (hSyn) promoter (AAV9-hSyn-DIO-hM4D(Gi)-mCherry) (Data not shown). The control group was composed of wild-type female mice receiving the same stereotaxic surgery. This approach provided an average efficiency of 86.82±2.33% of nNOS^VMH neurons targeted with AAV9-hM4 (Gi)-mCherry and with an off-target infection rate of 5.48±2.17% in non-nNOS^VMH neurons (N=5; Data not shown).
Following viral transfection, Nos1^cre/+ female mice were subjected to two lordosis tests and randomly received either vehicle or the DREADD ligand clozapine N-oxide (CNO; 3 mg/kg) one hour before behavioral assessment.

Data set [3] concerns nNOS^VMH neurons. Briefly: Lordosis test with CNO pre-treatment followed by kisspeptin-10 (kisspeptin-nNOS^VMH coupling). Format: in vivo, mice. How it is done:
as §3, §2
Using a similar approach as described above, we stereotaxically delivered the expression of AAV9-hM4(Gi)-mCherry in nNOS^VMH neurons in both Nos1cre/+ and wild-type female mice. […]

For data set [4] the following is noted: cited from earlier work.
The mark [5] stands for this setting: PAMH female mice, SNAP 8 mg/kg, P<0.0001, similar to control levels.
Setting [6] is: control female mice, SNAP 8 mg/kg.
[7] abbreviates: Nos1cre/+ female mice, CNO 3 mg/kg, P<0.01.
The mark [8] stands for this setting: wild-type control group with same surgery, CNO 3 mg/kg.

In the case of `CC(=O)NC(C(=O)O)C(C)(C)SN=O` (racemic) [SNAP, S-nitroso-N-Acetyl-DL-Penicillamine], in data set [1] (PAMH female mice, SNAP 8 mg/kg s.c. 15 minutes before test, mean±SEM), the “lordosis quotient (LQ)” value stood at 68.17±6.97. The “fold increase of lordosis behavior vs saline” value in data set [1] (PAMH female mice, SNAP 8 mg/kg vs saline) is reported as roughly 7.28 fold. In addition, the “lordosis behavior (in words)” value in data set [1] (PAMH female mice, SNAP 8 mg/kg, P<0.0001) is listed as “robustly recovered normal lordosis behavior in PAMH female mice similar to control levels”. Further, the “mild rejection behavior (MRQ)” value was “significantly reduced” in data set [1] (setting [5]) and “did not change these parameters” in data set [1] (setting [6]). Moreover, the entries for the “severe rejection behavior (SRQ)” value in data set [1] (setting [5]) and in data set [1] (setting [6]) were “significantly reduced” and “did not change these parameters”, respectively. Moreover, the “cFOS expression in vlPAG and dmPAG” value is reported as “did not alter cFOS expression” with cFOS (PAMH mice, SNAP 8 mg/kg) and “lower cFOS expression compared with vehicle-treated control mice” in the data set with cFOS (control mice, SNAP 8 mg/kg vs vehicle, P<0.05). For the same compound, the “proportion of nNOS neurons expressing cFOS (vlVMH, pdMeA)” value in the data set on cFOS (PAMH mice, SNAP 8 mg/kg, P<0.05) is listed as “fully restored the proportion of nNOS cells expressing cFOS to control levels”. Further, the “cFOS expression in MPA, MnPO, vlVMH and pdMeA” value in the data set with cFOS (estrus PAMH mice, SNAP 8 mg/kg, after lordosis test) is “increased cFOS expression in all of these four regions in PAMH mice to control levels”.
Regarding `C[N+]1([O-])CCN(C2=Nc3cc(Cl)ccc3Nc3ccccc32)CC1.Cl.Cl` [CNO, clozapine N-oxide dihydrochloride], in the data set on nNOS^VMH neurons [2] (Nos1cre/+ female mice with AAV9-hM4D(Gi)-mCherry in VMH, CNO 3 mg/kg i.p. one hour before test, P<0.01 vs vehicle), the “lordosis quotient (LQ)” value is recorded as 4.24±2.26. In the data set on nNOS^VMH neurons [2] (setting [7]), the “mild rejection behavior vs vehicle-injected mice” value is “higher” and the “severe rejection behavior vs vehicle-injected mice” value is listed as “higher”. Further, in the data set with nNOS^VMH neurons [2] (setting [8]), the “lordosis behavior, CNO vs vehicle” value was “did not show any difference between treatments”; the “mild rejection behavior, CNO vs vehicle” value is on record as “did not show any difference between treatments”; the “severe rejection behavior, CNO vs vehicle” value is listed as “did not show any difference between treatments”. Further, the “sexual (lordosis) behavior” value with nNOS^VMH neurons [3] (Nos1cre/+ female mice, CNO pre-treatment, P<0.01) is listed as “caused significant disruption of sexual behavior”. Besides, the lordosis behavioral output entry with nNOS^VMH neurons [3] (control (wild-type) female mice, CNO alone, pre-injection -60 min) is given as “did not have any effect”.
`[N]=O` [Nitric oxide]: the “half-life in the blood” value in data set [4] is listed as “a few seconds”.
Turning to “rodent metastin (45-54) amide (YNWNSFGLRY-NH2; UniProt Q6Y4S4 110-119, looked up) [kisspeptin-10, kisspeptin-10 peptide from GeneCust]”, in the data set with nNOS^VMH neurons [3] (control (wild-type) female mice, kisspeptin-10 0.52 μg/kg, -30 min, P<0.05), the lordosis performance entry was “significantly enhanced lordosis performance”.
